Experiments:
Crizotinib = compound: C[C@@H](Oc1cc(-c2cnn(C3CCNCC3)c2)cnc1N)c1c(Cl)ccc(F)c1Cl [Crizotinib]; conditions: max 10 µM
Outline: (§1)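 Plates with 1536 wells received cancer cell lines in 7.5 μl of DMEM/F12 or RPMI containing 10% FBS. After 24 hours at 37°C and 5% CO2, cells were dosed for 72 hours with final DMSO typically 0.2%, and viability was read by CellTiter-Glo 2.0 luminescence scaled between blank-well and DMSO-well means. The single-agent IC50 was taken from a logistic fit of the dose responses made with a non-linear mixed effects model, that logistic curve having two parameters.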

Selumetinib = compound: Cn1cnc2c(F)c(Nc3ccc(Br)cc3Cl)c(C(=O)NOCCO)cc21 [Selumetinib]; conditions: max 10 µM
Outline: as §1

SN-38 = compound: CCc1c2c(nc3ccc(O)cc13)-c1cc3c(c(=O)n1C2)COC(=O)[C@]3(O)CC [SN-38]; conditions: max 0.3 µM
Outline: as §1

AZD5991 = compound: Cc1c2c(nn1C)CSCc1cc(n(C)n1)CSc1cc(c3ccccc3c1)OCCCc1c(C(=O)O)n(C)c3c-2c(Cl)ccc13 [AZD5991]; conditions: max 1 µM
Outline: as §1

Paclitaxel = compound: CC(=O)O[C@H]1C(=O)[C@@]2(C)[C@H]([C@H](OC(=O)c3ccccc3)[C@]3(O)C[C@H](OC(=O)[C@H](O)[C@@H](NC(=O)c4ccccc4)c4ccccc4)C(C)=C1C3(C)C)[C@]1(OC(C)=O)CO[C@@H]1C[C@@H]2O [Paclitaxel]; conditions: max 3 µM
Outline: as §1

AZD5153 = compound: COc1nnc2ccc(N3CCC(c4ccc(OCCN5CCN(C)C(=O)[C@H]5C)cc4)CC3)nn12 [AZD5153]; conditions: max 1 µM
Outline: as §1

Trametinib = compound: CC(=O)Nc1cccc(-n2c(=O)n(C3CC3)c(=O)c3c(Nc4ccc(I)cc4F)n(C)c(=O)c(C)c32)c1 [Trametinib]; conditions: max 1 µM
Outline: as §1

Lapatinib = compound: CS(=O)(=O)CCNCc1ccc(-c2ccc3ncnc(Nc4ccc(OCc5cccc(F)c5)c(Cl)c4)c3c2)o1 [Lapatinib]; conditions: max 10 µM
Outline: as §1

Etoposide = compound: COc1cc([C@@H]2c3cc4c(cc3[C@@H](O[C@@H]3O[C@@H]5CO[C@@H](C)O[C@H]5[C@H](O)[C@H]3O)[C@H]3COC(=O)[C@H]23)OCO4)cc(OC)c1O [Etoposide]; conditions: max 10 µM
Outline: as §1

[1] = compound: O=C(Nc1ccc2[nH]nc(-c3ccncc3)c2c1)[C@@H]1CCN(CC(=O)N2CCN(c3ccc(-c4ncccn4)cc3)CC2)C1; conditions: max 5 µM
Outline: as §1

AZD2811 = compound: CCN(CCO)CCCOc1ccc2c(Nc3cc(CC(=O)Nc4cccc(F)c4)[nH]n3)ncnc2c1 [AZD2811]; conditions: max 1 µM
Outline: as §1

Gefitinib = compound: COc1cc2ncnc(Nc3ccc(F)c(Cl)c3)c2cc1OCCCN1CCOCC1 [Gefitinib]; conditions: max 10 µM
Outline: as §1

Doxorubicin = compound: COc1cccc2c1C(=O)c1c(O)c3c(c(O)c1C2=O)C[C@@](O)(C(=O)CO)C[C@@H]3O[C@H]1C[C@H](N)[C@H](O)[C@H](C)O1 [Doxorubicin]; conditions: max 1 µM
Outline: as §1

Olaparib = compound: O=C(c1cc(Cc2n[nH]c(=O)c3ccccc23)ccc1F)N1CCN(C(=O)C2CC2)CC1 [Olaparib]; conditions: max 10 µM
Outline: as §1

Prexasertib = compound: COc1cccc(OCCCN)c1-c1cc(Nc2cnc(C#N)cn2)n[nH]1 [Prexasertib]; conditions: max 1 µM
Outline: as §1

SRA737 = compound: N#Cc1cnc(Nc2cc(NC[C@H]3CNCCO3)c(C(F)(F)F)cn2)cn1 [SRA737]; conditions: max 10 µM
Outline: as §1

Venetoclax = compound: CC1(C)CCC(CN2CCN(c3ccc(C(=O)NS(=O)(=O)c4ccc(NCC5CCOCC5)c([N+](=O)[O-])c4)c(Oc4cnc5[nH]ccc5c4)c3)CC2)=C(c2ccc(Cl)cc2)C1 [Venetoclax]; conditions: max 1 µM
Outline: as §1

Taselisib = compound: Cc1nc(-c2cn3c(n2)-c2ccc(-c4cnn(C(C)(C)C(N)=O)c4)cc2OCC3)n(C(C)C)n1 [Taselisib]; conditions: max 10 µM
Outline: as §1

AZD1390 = compound: CC(C)n1c(=O)n(C)c2cnc3cc(F)c(-c4ccc(OCCCN5CCCCC5)nc4)cc3c21 [AZD1390]; conditions: max 0.3 µM
Outline: as §1

Alisertib = compound: COc1cc(Nc2ncc3c(n2)-c2ccc(Cl)cc2C(c2c(F)cccc2OC)=NC3)ccc1C(=O)O [Alisertib]; conditions: max 10 µM
Outline: as §1

MK-2206 = compound: NC1(c2ccc(-c3nc4ccn5c(=O)[nH]nc5c4cc3-c3ccccc3)cc2)CCC1 [MK-2206]; conditions: max 10 µM
Outline: as §1

AZD7648 = compound: Cc1cc2ncnn2cc1Nc1ncc2c(n1)n(C1CCOCC1)c(=O)n2C [AZD7648]; conditions: max 10 µM
Outline: as §1

Palbociclib = compound: CC(=O)c1c(C)c2cnc(Nc3ccc(N4CCNCC4)cn3)nc2n(C2CCCC2)c1=O [Palbociclib]; conditions: max 10 µM
Outline: as §1

AZD6738 = compound: C[C@@H]1COCCN1C2=NC(=NC(=C2)C3(CC3)[S@](=N)(=O)C)C4=C5C=CNC5=NC=C4 [AZD6738]; conditions: max 10 µM
Outline: as §1

Savolitinib = compound: C[C@@H](c1ccc2nccn2c1)n1nnc2ncc(-c3cnn(C)c3)nc21 [Savolitinib]; conditions: max 1 µM
Outline: as §1

AZD1775 = compound: C=CCn1c(=O)c2cnc(Nc3ccc(N4CCN(C)CC4)cc3)nc2n1-c1cccc(C(C)(C)O)n1 [AZD1775]; conditions: max 3 µM
Outline: as §1

AZD4320 = compound: CN(CC[C@H](CSC1=CC=CC=C1)NC2=C(C=C(C=C2)S(=O)(=O)NC(=O)C3=CC=C(C=C3)N4CCC(CC4)[C@H](C5=CC=CC=C5C6=CC=C(C=C6)Cl)O)S(=O)(=O)C(F)(F)F)CCO [AZD4320]; conditions: max 1 µM
Outline: as §1

AZD8186 = compound: C[C@@H](Nc1cc(F)cc(F)c1)c1cc(C(=O)N(C)C)cc2c(=O)cc(N3CCOCC3)oc12 [AZD8186]; conditions: max 10 µM
Outline: as §1

Carboplatin = compound: C1CC(C1)(C(=O)[O-])C(=O)[O-].N.N.[Pt+2] [Carboplatin]; conditions: max 10 µM
Outline: as §1

Gemcitabine = compound: Nc1ccn([C@@H]2O[C@H](CO)[C@@H](O)C2(F)F)c(=O)n1 [Gemcitabine]; conditions: max 0.3 µM
Outline: as §1

AZD0156 = compound: CN(C)CCCOc1ccc(-c2ccc3ncc4c(c3c2)n(C2CCOCC2)c(=O)n4C)cn1 [AZD0156]; conditions: max 3 µM
Outline: as §1

SG3199 = compound: CC1=CN2[C@@H](C1)C=NC3=CC(=C(C=C3C2=O)OC)OCCCCCOC4=C(C=C5C(=C4)N=C[C@@H]6CC(=CN6C5=O)C)OC [SG3199]; conditions: max 0.001 µM
Outline: as §1

AZD5363 = compound: C1CN(CCC1(C(=O)N[C@@H](CCO)C2=CC=C(C=C2)Cl)N)C3=NC=NC4=C3C=CN4 [AZD5363]; conditions: max 10 µM
Outline: as §1

Dasatinib = compound: CC1=C(C(=CC=C1)Cl)NC(=O)C2=CN=C(S2)NC3=CC(=NC(=N3)C)N4CCN(CC4)CCO [Dasatinib]; conditions: max 2 µM
Outline: as §1

5-Fluorouracil = compound: O=c1[nH]cc(F)c(=O)[nH]1 [5-Fluorouracil]; conditions: max 20 µM
Outline: as §1

Cell Line	IC50, cell viability 72 h (Crizotinib) [µM]	IC50, cell viability 72 h (Selumetinib) [µM]	IC50, cell viability 72 h (SN-38) [µM]	IC50, cell viability 72 h (AZD5991) [µM]	IC50, cell viability 72 h (Paclitaxel) [µM]	IC50, cell viability 72 h (AZD5153) [µM]	IC50, cell viability 72 h (Trametinib) [µM]	IC50, cell viability 72 h (Lapatinib) [µM]	IC50, cell viability 72 h (Etoposide) [µM]	IC50, cell viability 72 h [1] [µM]	IC50, cell viability 72 h (AZD2811) [µM]	IC50, cell viability 72 h (Gefitinib) [µM]	IC50, cell viability 72 h (Doxorubicin) [µM]	IC50, cell viability 72 h (Olaparib) [µM]	IC50, cell viability 72 h (Prexasertib) [µM]	IC50, cell viability 72 h (SRA737) [µM]	IC50, cell viability 72 h (Venetoclax) [µM]	IC50, cell viability 72 h (Taselisib) [µM]	IC50, cell viability 72 h (AZD1390) [µM]	IC50, cell viability 72 h (Alisertib) [µM]	IC50, cell viability 72 h (MK-2206) [µM]	IC50, cell viability 72 h (AZD7648) [µM]	IC50, cell viability 72 h (Palbociclib) [µM]	IC50, cell viability 72 h (AZD6738) [µM]	IC50, cell viability 72 h (Savolitinib) [µM]	IC50, cell viability 72 h (AZD1775) [µM]	IC50, cell viability 72 h (AZD4320) [µM]	IC50, cell viability 72 h (AZD8186) [µM]	IC50, cell viability 72 h (Carboplatin) [µM]	IC50, cell viability 72 h (Gemcitabine) [µM]	IC50, cell viability 72 h (AZD0156) [µM]	IC50, cell viability 72 h (SG3199) [µM]	IC50, cell viability 72 h (AZD5363) [µM]	IC50, cell viability 72 h (Dasatinib) [µM]	IC50, cell viability 72 h (5-Fluorouracil) [µM]
YAPC (Pancreatic Carcinoma)	> 10	> 10	0.113	> 1	> 3	> 1	> 1	> 10	> 10	> 5	> 1	> 10	> 1	> 10	0.641	> 10	> 1	> 10	> 0.3	> 10	> 10	> 10	> 10	> 10	> 1	> 3	> 1	> 10	> 10	0.212	> 3	> 0.001	> 10	> 2	> 20
HuCCT1 (Biliary Tract Carcinoma)	> 10	6.72	0.184	> 1	0.294	0.78	0.314	> 10	> 10	1.79	> 1	> 10	0.71	> 10	0.0354	6.75	> 1	> 10	> 0.3	> 10	> 10	> 10	> 10	4.36	> 1	0.583	> 1	> 10	> 10	> 0.3	> 3	> 0.001	> 10	0.918	> 20
CAL-72 (Osteosarcoma)	> 10	> 10	0.0423	> 1	0.0712	> 1	> 1	> 10	6.02	> 5	> 1	> 10	> 1	> 10	0.0169	> 10	> 1	> 10	> 0.3	5.04	> 10	> 10	> 10	2.87	> 1	0.587	> 1	> 10	> 10	0.128	> 3	> 0.001	> 10	> 2	> 20
ESS-1 (Other Solid Carcinomas)	4.82	> 10	0.00256	> 1	0.00506	0.319	0.989	> 10	0.5	2.98	0.533	> 10	0.0653	> 10	0.00452	0.93	> 1	1.06	> 0.3	3.89	> 10	> 10	> 10	1.77	> 1	0.151	> 1	4.5	> 10	0.0306	> 3	> 0.001	5.5	0.125	> 20
WSU-NHL (B-Cell Non-Hodgkin's Lymphoma)	4.52	> 10	0.00241	0.321	< 0.003	0.0459	> 1	9.55	0.16	> 5	0.134	> 10	0.0142	7.07	0.0152	2.31	0.0642	0.0705	> 0.3	0.0736	0.543	> 10	1.28	0.998	> 1	0.41	0.0814	0.397	> 10	0.00525	> 3	> 0.001	0.809	0.0126	5.46
A673 (Ewing's Sarcoma)	> 10	> 10	0.00259	> 1	0.00699	> 1	> 1	> 10	2.27	> 5	0.132	> 10	0.284	> 10	0.0344	> 10	> 1	6.72	> 0.3	1.46	> 10	> 10	> 10	1.98	> 1	> 3	0.169	> 10	> 10	0.0178	> 3	> 0.001	> 10	> 2	> 20
NCI-H524 (Small Cell Lung Carcinoma)	2.55	> 10	0.133	> 1	0.00326	0.278	> 1	> 10	> 10	> 5	0.0223	> 10	> 1	> 10	0.0236	> 10	> 1	8.08	> 0.3	0.0305	> 10	> 10	> 10	4.37	> 1	0.974	0.415	> 10	> 10	0.189	> 3	> 0.001	> 10	> 2	> 20
MPP-89 (Mesothelioma)	> 10	> 10	0.172	> 1	0.842	> 1	> 1	> 10	> 10	> 5	> 1	> 10	> 1	> 10	0.0672	> 10	> 1	> 10	> 0.3	9.37	> 10	> 10	> 10	> 10	> 1	1.55	> 1	> 10	> 10	> 0.3	> 3	> 0.001	> 10	0.558	> 20
